Literature values as cited in patent US20090214648A1 (priority 2008, published 2009).

What was measured:
[1] = in vivo

Inhibition of cyclooxygenase (enzyme cyclooxygenase): potent inhibitor | Dose excreted in the urine [1]: more than 90% | Dose excreted unchanged [1]: Less than 10% | Time until excretion is essentially complete [1]: ≤ 24 h
SMILES: CC(C)Cc1ccc(C(C)C(=O)O)cc1 (stereo not shown) [Ibuprofen, 2-[4-(2-methylpropyl)phenyl]propanoic acid]
